From patent publication US9901639B2, “Bone marrow origin progenitor cell or endothelial progenitor cell in combination with DNMT1 gene therapy for vascular repair in metabolic disease” (Temple University—of the Commonwealth System of Higher …, priority 2015, dated 2018)

Columns and labels:
Assay type in all cases: cell-based, human
hEPCs [1] = test: hEPC adhesion assay on fibronectin; conditions: L-Hcy 250 μmol/L, 48 h
Source text: (§1) In this study EPCs refer to endothelial colony-forming cells (ECFCs) and their progenitor cell capacities were characterized as described (Wu, Y et al., J Thromb Haemost, 2010; 8:185-193; Wang, H et al., Circulation research, 2004; 94:843 and Stellos, K et al., Eur Heart J., 2009; 30:584-593). Briefly, human blood was collected from healthy volunteer donors. All volunteers had no risk factors of CVD including hypertension, diabetes, smoking, positive family history of premature CVD and hypercholesterolemia, and were all free of wounds, ulcers, retinopathy, recent surgery, inflammatory, malignant diseases, and medications that may influence EPC kinetics. After dilution with HBSS (1:1), blood was overlaid onto Histopaque 1077 (Sigma-Aldrich Co. LLC, St. Louis, Mo.) in the ratio of 1:1 and centrifuged at 740 g for 30 minutes at room temperature. Buffy coat MNCs were collected and centrifuged at 700 g for 10 minutes at room temperature. MNCs were cultured in collagen type I (BD Bioscience, San Diego) (50 m/ml)-coated dishes with EBM2 basal medium (Lonza Inc., Allendale, N.J.) plus standard EGM-2 SingleQuotes (Lonza Inc., Allendale, N.J.) that includes 2% fetal bovine serum (FBS), EGF (20 ng/ml), hydrocortisone (1 μg/ml), bovine brain extract (12 μg/ml), gentamycin (50 μg/ml), amphotericin B (50 ng/ml), and epidermal growth factor (10 ng/ml). Colonies appeared between 5 and 22 days of culture were identified as a well-circumscribed monolayer of cobblestone-appearing cells. […] After staining, cells were imaged with high-power fields under an inverted fluorescent microscope (Axiovert 200, Carl Zeiss, Thornwood, N.Y.) at 200× magnification and quantified using Image J software. […]
EPC adhesion to extracellular matrix (ECM) was evaluated as previously described. […] Adherent cells were photographed with high-power fields under an inverted fluorescent microscope (Axiovert 200, Carl Zeiss, Thornwood, N.Y.) at 200× magnification and quantified by counting the attached cells using image J.

hEPCs [2] = test: hEPC scratch wound migration assay
Source text: as §1, with “cells. ECFCs with endothelial lineage markers expression, robust proliferative potential, colony-forming, and vessel-forming activity in vitro are defined as EPCs as described (Wang, H et al., Circulation research, 2004; 94:843 and Stellos, K et al., Eur Heart J., 2009; 30:584-593). Passage 4 to 6 EPCs were used for experiments. For a brief characterization, endothelial phagocytosis function was confirmed by incubating EPC in 4-well chamber slide with 1, 1-dioctadecyl-3, 3, 3, 3-tetramethylindocarbocyanine (DiI)-labeled acetylated low-density lipoprotein (acLDL) (Biomedical Technologies, Inc., Stoughton, Mass.) (5 m/ml) at 37° C. for 1 h, washed 3 times for 15 min in PBS, and then fixed with 2% paraformaldehyde for 10 min.” for “cells.”
EPC migration was evaluated using a scratch wound assay as previously described (Tan, H et al., Cardiovascular research, 2006; 69:253-262). […]

hEPCs [3] = test: hEPC 3H-thymidine incorporation proliferation assay; conditions: L-Hcy 50 to 250 μmol/L, 24 h
Source text: In this study EPCs refer to endothelial colony-forming cells (ECFCs) and their progenitor cell capacities were characterized as described (Wu, Y et al., J Thromb Haemost, 2010; 8:185-193; Wang, H et al., Circulation research, 2004; 94:843 and Stellos, K et al., Eur Heart J., 2009; 30:584-593). Briefly, human blood was collected from healthy volunteer donors. All volunteers had no risk factors of CVD including hypertension, diabetes, smoking, positive family history of premature CVD and hypercholesterolemia, and were all free of wounds, ulcers, retinopathy, recent surgery, inflammatory, malignant diseases, and medications that may influence EPC kinetics. […] After staining, cells were imaged with high-power fields under an inverted fluorescent microscope (Axiovert 200, Carl Zeiss, Thornwood, N.Y.) at 200× magnification and quantified using Image J software. […]
^3H thymidine incorporation assay was used to detect EPC proliferation activity as previously described (Tan, H et al., Cardiovascular research, 2006; 69:253-262). ^3EPCs were seeded onto 24-well plates (5×10^4 cells/well) in EGM2 medium and exposed to L-Hcy (50 to 250 μmol/L) for 24 h after grown to 70-80% confluence. […] Incorporated [methyl-^3H] thymidine was measured in a liquid scintillation counter (PerkinElmer Inc. Waltham, Mass., USA).

hEPCs [4] = test: hEPC viability by crystal violet staining; conditions: L-Hcy 48 h
Method: Confluent hEPCs were treated with L-Hcy at indicated concentrations for functional studies as described in the section of Methods. FIG. 5A. […] FIG. 5B. Representative images of hEPC adhesion. hEPCs treated with L-Hcy for 48 h were harvested and plated on fibronectin-coated cell culture plates for 1 hour at 37° C. Attached cells were photographed and quantified in high-power fields under an inverted microscope. FIG. 5C. Quantitative analysis of adhesion. FIG. 5D. Representative images of hEPC migration. Confluent hEPCs were incubated with L-Hcy for 48 h, scratched to create a wound and evaluated for migration after 20 h. E. Quantitative analysis of migration. FIG. 5F. Quantitative analysis of hEPC proliferation. 80% confluent hEPCs were treated with L-Hcy for 24 h and labeled with ^3[H]-thymidine for the last 4 h. Incorporated ^3[H]-thymidine was measured in a liquid scintillation counter. FIG. 5G. Quantitative analysis of hEPC viability. Confluent hEPCs were treated with L-Hcy for 48 h and nuclear counts determined by crystal violet staining to determine the viable cells. Data are representative of 3 separate experiments and are shown as mean±SD. *P<0.05 versus control. hEPCs; human endothelial progenitor cells; Hcy, homocysteine.

N[C@@H](CCS)C(=O)O [L-Hcy, homocysteine]
EPC adhesion to fibronectin compared with the control (hEPCs [1]): 57%
Hcy-suppressed adhesion in hEPC (without 12G10) (hEPCs [1]; adhesion rescue experiment): 62%
EPC adhesion to fibronectin (hEPCs [1]; control 0.13±0.006): 0.06±0.008 OD630 nm
hEPC migration (value in brackets) (hEPCs [2]; Hcy 100 μmol/L): 54.6±2.8
hEPC migration reduced to (hEPCs [2]; Hcy 100 μmol/L): 68%
hEPC migration (value in brackets) (hEPCs [2]; Hcy 250 μmol/L): 49.7±1.1
hEPC migration reduced to (hEPCs [2]; Hcy 250 μmol/L): 62%
DNA synthesis ([3H] thymidine uptake) (hEPCs [3]): dose sensitively inhibited
EPC viability (hEPCs [4]): no effect
